The values below come from BindingDB's records for doi:10.1016/j.bmcl.2013.09.026 (Friedrich-Alexander University, 2013).

This assay concerns the target Alpha-1 adrenergic receptor (Sus scrofa). Description: Displacement of [3H]-prazosin from alpha1-adrenergic receptor in pig cerebral cortex. For orientation: In a radioligand displacement assay an active substance lowers the binding of a labelled ligand.

`COc1ccccc1N1CCN(Cc2cn(CCCCCCF)nn2)CC1` showed a Ki of 110 nM. Under `COc1ccccc1N1CCN(Cc2cn(CCOCCOCCF)nn2)CC1` stands 490 nM.

What is called Ki is a dissociation constant, usually derived from enzyme kinetics or from competition with a known ligand. A high value points to lower affinity.
